Measured values taken from patent US20110124086A1, “Hepatitis C Virus Culture System” (The Regents of the University of California, priority 2009, published 2011).

Columns and labels:
Format in all cases: cell-based, Hepatitis C virus
[1] = tested on: HCV genotype 1b (CG1b) in FH-CG1bRbz cells; experiment: Effect of PKR and Jak2 inhibitor on intracellular HCV RNA in FH-CG1bRbz cells, qRT-PCR; conditions: C5 1 μM or Jak2 inhibitor II 10 and 50 μM, 48 or 96 hr incubation
Method: (§1) Cg1bRbz cells were treated with C5 (1 μM) or Jak2 inhibitor II (10 and 50 μM) for 48 or 96 hrs and analyzed for intracellular HCV RNAs by qRT-PCR. Huh7 cells transfected with JFH1 RNA were also used as a control. Bottom right—Huh7 cells were inoculated with virus samples prepared from control and Jak2 inhibitor II-treated later passage FH cell culture medium and analyzed for HCV RNA after 48 hrs by qRT-PCR.
HCV RNA was quantified by quantitative reverse transcriptase polymerase chain reaction (qRT-PCR) as described. Intracellular HCV RNA levels were normalized by glyceraldehydes 3-phosphate dehydrogenase mRNA content. Standard curves were generated using in vitro-transcribed HCV RNA's. Control reactions containing no reverse transcriptase were also carried out as controls. HCV protein levels were visualized by immunofluorescence staining followed by confocal microscopy. […]
(§2) It was then examined whether suppressing the hepatocyte innate immunity by inhibiting Jak/Stat pathway and/or PKR could increase the HCV titer in Applicants' FH cell clones and therefore, increase the infectivity of CG1b. HCV RNA level was analyzed in FH-CG1 bRbz cells after 48 or 96 hr incubation with C5, an inhibitor of PKR, or Jak2 Inhibitor II.

[2] = tested on: JFH1 (HCV genotype 2a) in Huh7 cells; experiment: Effect of PKR and Jak2 inhibitor on intracellular HCV RNA in Huh7 cells transfected with JFH1 RNA, qRT-PCR; conditions: C5 1 μM or Jak2 inhibitor II 10 and 50 μM, 48 or 96 hrs
Method: as §1
(§3) Huh7 human hepatoma cells were transfected with in vitro-transcribed JFH1 RNA and cultured, as previously described (Choi et al. (2004) Hepatology 39:91-9). Telomerase-reconstituted primary human hepatocytes were transfected with pEF-CG1 bRbz/Neo, pEF-CG1 bGNDRbz/Neo, or control EF-driven vector alone as described for Huh7, and cell clones that are stably transfected with these constructs were selected and maintained in G418-containing medium (Invitrogen) (Wege et al. (2004) Gastroenterology 124:432-44). […]
(§4) HCV RNA was quantified by quantitative reverse transcriptase polymerase chain reaction (qRT-PCR) as described. […]
as §2

[3] = tested on: HCV genotype 1b (CG1b); experiment: HCV infectivity of medium from Jak2 inhibitor II-treated FH-CG1bRbz cells inoculated on Huh7 cells, HCV RNA by qRT-PCR; conditions: HCV RNA after 48 hrs, later passage FH cell culture medium
Method: as §1, §3, §4, §2

[4] = tested on: HCV of genotype 1b (CG1b); experiment: Antiviral activity of IFNα in Huh7 cells infected with FH-CG1bRbz hepatocyte-derived medium, HCV RNA by qRT-PCR; conditions: IFNα 100 U/ml once, 48 hrs after infection, analysed after 24 hrs
Method: Huh7 cells were infected with hepatocyte-derived medium. Then, after 48 hrs, cells were treated with 0 or 100 U/ml of IFNα once and analyzed for HCV RNA by qRT-PCR after 24 hrs. N.D. indicates not detectable or below the level of detection.
Huh7 human hepatoma cells were transfected with in vitro-transcribed JFH1 RNA and cultured, as previously described (Choi et al. (2004) Hepatology 39:91-9). Telomerase-reconstituted primary human hepatocytes were transfected with pEF-CG1 bRbz/Neo, pEF-CG1 bGNDRbz/Neo, or control EF-driven vector alone as described for Huh7, and cell clones that are stably transfected with these constructs were selected and maintained in G418-containing medium (Invitrogen) (Wege et al. (2004) Gastroenterology 124:432-44). For virus infection, the extracellular medium from JFH1-transfected cells and CG1b transfected cell clones was cleared by low speed centrifugation at 5,000 rpm for 10 min and concentrated ˜10 fold by ultracentrifugation at 21,000 rpm for 6.5 hrs at 4° C. The medium was also pre-treated with RNase (and also with DNase for CG1b medium) for 30 min at room temperature prior to these centrifugation steps. Then, the concentrated virus samples were used to inoculate naïve Huh7 or Huh7.5 cells (Wakita et al. (2005) Nat. Med. 11:791-6). […]
as §4

`BrC1C(Br)C(Br)C(Br)C(Br)C1Br` (centres unmarked) [Jak2 Inhibitor II] was tested, and the “intracellular HCV RNA in FH-CG1bRbz cells” value [1] was “intracellular HCV RNA increased”, the “intracellular HCV RNA in Huh7 cells transfected with JFH1 RNA” value [2] was “an increase in the intracellular HCV RNA” and the “HCV infectivity of medium from Jak2 inhibited FH-CG1bRbz cells compared to medium from control cells” value [3] was “increased only modestly”.

For interferon alpha [IFNα], the “HCV titer (HCV RNA) in CG1b-infected Huh7 cells” value [4] was “decreased HCV titer” and the “HCV titer (HCV RNA) in CG1b-infected Huh7 cells” value ([4]; listed as interferon alpha) was “decreased”.
